Measured values: ChEMBL document CHEMBL6134840 (J Med Chem, 2025)

Assays:
[1] = Permeability across apical to basal side in human Caco-2 cells; format: ADME, cell-based
[2] = Stability in mouse liver microsome; format: ADME; conditions: microsomes

O=S(=O)(Nc1ccc2ccccc2n1)c1ccccc1
permeability [1]: Permeable | Stability [2]: Stable
